{"source": "patent US20040039266A1", "about": "“Apparatus and method for measurement of biological structures” (priority 2000, published 2004)", "key": {"NOS": {"system": "NOS", "assay": "Functional detection of NOS transfection in mouse mesenteric arteries by absorption spectroscopy", "excerpt": "Mouse 1st order mesenteric arteries are dissected out and maintained in Optimem I supplemented with 10% foetal bovine serum. cDNAs (for NOS) inserted into appropriate plasmids are mixed with LipofectAMINE according to the manufacturers instructions. Two arteries are set up in separate perfusion chambers; the first tissue (A) acts as a control (receives LipofectAMINE and plasmids without the cDNA insert), the second tissue (B) receives LipofectAMINE with plasmids containing the NOS cDNA insert. The arteries are exposed to the appropriate transfection solutions for 8 hours.\nAfter 8 hours, the unit switches automatically and perfuses the vessels with normal PSS. Analysis of the lumen diameter via absorption spectroscopy begins, providing continual information on the contractile state of the artery.\nFunctional detection of NOS activity is achieved by way of a two-stage protocol. Firstly, concentration-response curves to ACh are conducted in both vessels. During the concentration-response curve, changes in the state of the blood vessels are continuously monitored by absorption spectroscopy. ACh selectively activates expressed NOS synthase and causes release of the vasodilator nitric oxide (NO). […] The control vessel should display little vasodilation to ACh, as NOS cDNA was not transfected in this tissue.\nBoth vessels are then perfused with normal PSS for thirty minutes. […]"}, "[1]": {"system": "3rd order mesenteric arteries", "assay": "Absorption spectroscopy of agonist-induced vasoconstriction in pressurised rat mesenteric arteries", "settings": "increasing concentrations; normotensive male Wistar rat arteries, 60 mmHg, 37° C., PSS", "protocol": "3rd order mesenteric arteries from normotensive male Wistar rats were set up in two perfusion chambers in normal physiological salt solution (PSS), at 37° C. and gassed with 95% O2/5% CO2. The vessels were pressurised to 60 mmHg and allowed to equilibrate for 30 minutes. Thereafter, one vessel acted as a control and the other vessel received increasing concentrations of the thromboxane A2 mimetic, U46619. Transmission spectra were recorded at one second intervals and analysed according to the methods described above.\nThe optical extinction model described above was used to accurately and continuously measure lumen diameter."}}, "data": [{"compound": "CC(=O)OCC[N+](C)(C)C", "note": "[ACh]", "values": [{"measurement": "response of NOS cDNA-transfected blood vessel to ACh", "setting": "NOS; concentration-response curve, NOS-knockout mouse 1st order mesenteric artery after 8 hours transfection", "value": "vasodilation"}]}, {"compound": "CCCCC[C@H](O)/C=C/[C@@H]1[C@@H](C/C=C\\CCCC(=O)O)[C@H]2CO[C@@H]1C2", "note": "[U46619]", "values": [{"measurement": "vasoconstriction (change in lumen diameter) detected via shifts in transmission spectra", "setting": "[1]", "value": "vasoconstriction was detected"}]}, {"compound": "COC(=O)[C@@H](N)CCCNC(=N)N[N+](=O)[O-]", "note": "[L-NAME]", "values": [{"measurement": "effect on ACh responses (concentration response curve repeated in presence of inhibitor)", "setting": "NOS; NOS cDNA-transfected mouse mesenteric artery", "value": "abolish further responses to ACh"}]}]}
